Earlier results in article PMC3819144 (Biochemical pharmacology, 2013).

How the values were obtained:
CXCR7 [1] = settings: requires relatively high concentrations
CXCR7 [2] = system: CXCR7

In the case of `c1cc(CN2CCCNCCNCCCNCC2)ccc1CN1CCCNCCNCCCNCC1` [AMD3100], the “effect on binding of CXCL12 to CXCR7” value (CXCR7 [1]) is listed as “enhance binding of CXCL12 to CXCR7” and the “CXCR7 signaling through β-arrestin 2 / recruitment of β-arrestin 2” value (CXCR7 [2]) is listed as “modestly activate CXCR7 signaling through β-arrestin 2”.
